# Laboratory results reported in patent publication US4609666A, “Aromatase inhibiting derivatives of α,α-bis(4-halophenyl)methyltetrazoles and triazoles” (Eli Lilly and Company, priority 1984, dated 1986).
# Structures can show the parent of a compound that is named as a salt.
# Key:
# [1] = molecular target: T1, aromatase (Rattus norvegicus, UniProt P22443); experiment: Aromatase inhibition in the rat ovarian microsome assay; format: biochemical; conditions: rat ovarian microsomes; substrate (androstenedione) concentration 0.1 μM
# T1 construct: ovarian microsomes are obtained from rats treated with pregnant mares serum gonadotropin; from tissue; host or cells: ovary microsomes from rats treated with pregnant mares serum gonadotropin
# T1 sequence (P22443 1-508): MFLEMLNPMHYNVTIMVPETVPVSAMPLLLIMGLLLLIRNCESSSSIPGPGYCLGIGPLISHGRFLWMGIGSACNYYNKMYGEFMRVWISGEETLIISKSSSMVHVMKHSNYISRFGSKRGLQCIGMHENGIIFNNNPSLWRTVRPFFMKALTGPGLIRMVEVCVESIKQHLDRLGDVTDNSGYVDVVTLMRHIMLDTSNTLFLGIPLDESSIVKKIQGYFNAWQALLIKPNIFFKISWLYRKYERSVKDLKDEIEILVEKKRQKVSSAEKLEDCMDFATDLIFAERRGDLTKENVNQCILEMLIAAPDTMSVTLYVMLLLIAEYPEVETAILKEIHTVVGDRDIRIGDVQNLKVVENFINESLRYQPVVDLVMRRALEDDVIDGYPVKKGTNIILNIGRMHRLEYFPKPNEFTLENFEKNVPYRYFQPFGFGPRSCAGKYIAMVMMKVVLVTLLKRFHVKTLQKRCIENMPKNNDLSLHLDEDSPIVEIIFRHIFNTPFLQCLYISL
# Method: In this test system, ovarian microsomes are obtained from rats treated with pregnant mares serum gonadotropin. Test compounds are added to reaction vials containing 0.1 μM 4-androstene-3,17-dione, 100,000 dpm 1,2[^3 H]-androstenedione, the microsomes and a NADPH generating system. The concentrations of the inhibitors tested ranged between 0.005 and 10 μM.
# [2] = test system: breast cancer; conditions: known aromatase inhibitors; cited from earlier work
SMILES,EC50 [1] [nM],effect in treatment of breast cancer [2]
Clc1ccc(C(c2ccc(Cl)cc2)c2cc[nH]n2)cc1 [3-[Bis(4-chlorophenyl)methyl]-1H-pyrazole hydrochloride],170,
"Clc1ccc(C(c2ccccc2)c2cn[nH]c2)c(Cl)c1 (stereo not shown) [4-[(2,4-Dichlorophenyl)phenylmethyl]-1H-pyrazole]",310,
CCC1(c2ccc(N)cc2)CCC(=O)NC1=O (stereo not shown) [aminoglutethimide],,beneficial effect in treatment of breast cancer
C[C@]12C=CC(=O)C=C1CC[C@@H]1[C@@H]2CC[C@]2(C)OC(=O)CC[C@@H]12 [testolactone],,beneficial effect in treatment of breast cancer
